According to ChEMBL document CHEMBL3751809, “Symmetric 4,4'-(piperidin-4-ylidenemethylene)bisphenol derivatives as novel tunable estrogen receptor (ER) modulators” (Bioorg Med Chem, 2016):
Active and inactive are the calls of the source. The calls are words filed in the database; no cut-off is given here.

Assays:
[1] = target: T1, Estrogen receptor (Homo sapiens) (UniProt P03372); assay: Displacement of [6,7-3H]17beta-estradiol from recombinant human ERalpha ligand binding domain at 0.4 to 4 uM incubated for 16 hrs by scintillation counting analysis
T1 sequence (whole entry): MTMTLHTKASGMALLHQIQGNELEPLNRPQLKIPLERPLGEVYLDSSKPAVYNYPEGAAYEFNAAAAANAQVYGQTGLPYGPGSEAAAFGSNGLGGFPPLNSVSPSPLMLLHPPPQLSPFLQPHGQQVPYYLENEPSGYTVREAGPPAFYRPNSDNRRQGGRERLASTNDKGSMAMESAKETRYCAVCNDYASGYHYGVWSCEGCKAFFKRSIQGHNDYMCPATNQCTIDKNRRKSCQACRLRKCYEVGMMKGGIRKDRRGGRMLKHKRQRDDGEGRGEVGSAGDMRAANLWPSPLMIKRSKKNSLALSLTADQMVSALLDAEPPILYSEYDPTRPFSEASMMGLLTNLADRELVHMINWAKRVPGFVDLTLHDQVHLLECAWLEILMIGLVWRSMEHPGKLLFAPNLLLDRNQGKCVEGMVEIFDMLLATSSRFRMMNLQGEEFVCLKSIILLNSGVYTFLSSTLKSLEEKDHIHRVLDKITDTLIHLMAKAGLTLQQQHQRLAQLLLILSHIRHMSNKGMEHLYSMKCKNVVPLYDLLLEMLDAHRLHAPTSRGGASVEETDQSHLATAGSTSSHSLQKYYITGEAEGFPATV

[2] = target: T1, Estrogen receptor (Homo sapiens); assay: Displacement of [6,7-3H]17beta-estradiol from recombinant human ERalpha ligand binding domain incubated for 16 hrs by scintillation counting analysis
[3] = target: T1, Estrogen receptor (Homo sapiens); assay: Antagonist activity at ERalpha in human MCF7 cells assessed as inhibition of 17beta-estradiol-mediated cell proliferation incubated for 5 days by WST-8 assay; assay type: cell-based
[4] = target: T1, Estrogen receptor (Homo sapiens); assay: Agonist activity at ERalpha in human MCF7 cells assessed as induction of cell proliferation incubated for 5 days by WST-8 assay; assay type: cell-based

Compound	inhibition [1]	further results
CC(=O)N1CCC(=C(c2ccc(O)cc2)c2ccc(O)cc2)CC1	inactive	
CN1CCC(=C(c2ccc(O)cc2)c2ccc(O)cc2)CC1	inactive	
CCOC(=O)N1CCC(=C(c2ccc(O)cc2)c2ccc(O)cc2)CC1		inhibition [2]: Dose-dependent effect
CC(=O)N1C(C)(C)CC(=C(c2ccc(O)cc2)c2ccc(O)cc2)CC1(C)C	Active	inhibition [3]: inactive; Activity [4]: Dose-dependent effect

Continued, in another order:

inhibition [1]	Compound	further results
Active	CC1(C)CC(=C(c2ccc(O)cc2)c2ccc(O)cc2)CC(C)(C)N1	
inactive	Oc1ccc(C(=C2CCNCC2)c2ccc(O)cc2)cc1	
